Data from patent US20040248919A1, “Fluorinated trienes and their use as rxr modulators” (priority 2001, published 2004).

How the values were obtained:
[1] = target: T1, RXRβ (UniProt P28704); test: RXR binding, competition with tritiated retinoid; settings: read-out: RXR Binding beta
T1 sequence (P28704 1-520): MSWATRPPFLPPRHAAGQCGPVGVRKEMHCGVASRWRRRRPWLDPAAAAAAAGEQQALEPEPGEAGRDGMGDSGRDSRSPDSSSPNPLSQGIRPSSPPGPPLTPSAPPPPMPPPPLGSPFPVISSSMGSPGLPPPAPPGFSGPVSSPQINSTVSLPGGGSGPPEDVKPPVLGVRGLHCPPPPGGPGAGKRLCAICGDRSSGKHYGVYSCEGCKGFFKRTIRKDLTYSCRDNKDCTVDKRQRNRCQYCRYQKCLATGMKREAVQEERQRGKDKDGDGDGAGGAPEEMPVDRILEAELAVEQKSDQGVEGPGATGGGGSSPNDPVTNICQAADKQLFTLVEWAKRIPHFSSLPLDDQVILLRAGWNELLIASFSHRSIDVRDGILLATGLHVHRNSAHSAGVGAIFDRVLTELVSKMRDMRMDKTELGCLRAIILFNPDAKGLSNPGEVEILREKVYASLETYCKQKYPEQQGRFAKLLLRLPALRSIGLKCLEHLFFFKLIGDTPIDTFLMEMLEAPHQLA
From the text: (§1) In addition to the cotransfection data, the binding of selected compounds of the present invention to the RAR and RXR receptors was also investigated according to the methodology described in M. F., Boehm, et al., “Synthesis and Structure-Activity Relation-ships of Novel Retinoid X Receptor Selective Retinoids”, 37 J. Med. Chem., 2930 (1994); M. F. Boehm, et al., “Synthesis of High Specific Activity [^3H]-9-cis Retinoic Acid and Its Application for Identifying Retinoids with Unusual Binding Properties”, 37 J. Med. Chem., 408 (1994), and E. A. Allegretto, et al., “Characterization and Comparison of Hormone-Binding and Transactivation Properties of Retinoic Acid and Retinoid X Receptors Expressed in Mammalian Cells and Yeast”, 268 J. Biol. Chem., 22625 (1993), the disclosures of which are herein incorporated by reference.
(§2) Non-specific binding was defined as that binding remaining in the presence of 500 nM of the appropriate unlabelled compound. At the end of the incubation period, bound ligand was separated from free. The amount of bound tritiated retinoid was determined by liquid scintillation counting of an aliquot (700 μL) of the supernatant fluid or the hydroxylapatite pellet.
(§3) After correcting for non-specific binding, IC50 values were determined. The IC50 value is defined as the concentration of competing ligand needed to reduce specific binding by 50%. The IC50 value was determined graphically from a log-logit plot of the data. The Ki values were determined by application of the Cheng-Prussof equation to the IC50 values, the labeled ligand concentration and the Kd of the labeled ligand.

[2] = target: T2, RXRα (Homo sapiens, UniProt P19793); test: RXR binding, competition with tritiated retinoid; settings: read-out: RXR Binding alpha
T2 sequence (P19793 1-462): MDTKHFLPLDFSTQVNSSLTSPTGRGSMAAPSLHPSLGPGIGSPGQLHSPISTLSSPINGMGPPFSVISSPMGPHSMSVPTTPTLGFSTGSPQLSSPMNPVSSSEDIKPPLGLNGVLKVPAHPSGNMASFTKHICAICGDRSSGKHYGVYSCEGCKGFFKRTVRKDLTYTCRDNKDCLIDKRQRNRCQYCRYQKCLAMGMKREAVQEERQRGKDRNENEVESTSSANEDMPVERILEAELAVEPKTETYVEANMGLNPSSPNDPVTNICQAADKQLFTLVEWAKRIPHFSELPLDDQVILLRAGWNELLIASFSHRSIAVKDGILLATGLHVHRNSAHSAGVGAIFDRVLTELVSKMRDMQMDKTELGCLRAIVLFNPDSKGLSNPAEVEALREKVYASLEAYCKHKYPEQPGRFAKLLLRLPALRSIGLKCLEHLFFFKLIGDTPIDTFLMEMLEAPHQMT
From the text: as §1, §2, §3

[3] = target: T3, RARα (Homo sapiens, UniProt P10276); test: RAR binding, competition with tritiated retinoid; settings: read-out: RAR Binding alpha
T3 sequence (P10276 1-462): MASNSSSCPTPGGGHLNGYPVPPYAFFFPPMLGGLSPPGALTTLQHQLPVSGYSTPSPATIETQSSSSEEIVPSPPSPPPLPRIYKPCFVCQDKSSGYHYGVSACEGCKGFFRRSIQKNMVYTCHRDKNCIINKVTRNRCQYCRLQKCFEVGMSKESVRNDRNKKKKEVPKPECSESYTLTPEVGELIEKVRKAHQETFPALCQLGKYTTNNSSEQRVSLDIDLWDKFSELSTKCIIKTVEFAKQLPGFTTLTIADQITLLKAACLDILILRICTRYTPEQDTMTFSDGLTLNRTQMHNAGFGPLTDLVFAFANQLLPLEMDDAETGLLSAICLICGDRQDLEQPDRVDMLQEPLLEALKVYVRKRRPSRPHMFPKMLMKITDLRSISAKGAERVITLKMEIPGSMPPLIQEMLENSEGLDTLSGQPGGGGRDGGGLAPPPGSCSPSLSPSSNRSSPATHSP
From the text: as §1, §2, §3

[4] = target: T4, RARβ (Homo sapiens, UniProt P10826); test: RAR binding, competition with tritiated retinoid; settings: read-out: RAR Binding beta
T4 sequence (P10826 1-455): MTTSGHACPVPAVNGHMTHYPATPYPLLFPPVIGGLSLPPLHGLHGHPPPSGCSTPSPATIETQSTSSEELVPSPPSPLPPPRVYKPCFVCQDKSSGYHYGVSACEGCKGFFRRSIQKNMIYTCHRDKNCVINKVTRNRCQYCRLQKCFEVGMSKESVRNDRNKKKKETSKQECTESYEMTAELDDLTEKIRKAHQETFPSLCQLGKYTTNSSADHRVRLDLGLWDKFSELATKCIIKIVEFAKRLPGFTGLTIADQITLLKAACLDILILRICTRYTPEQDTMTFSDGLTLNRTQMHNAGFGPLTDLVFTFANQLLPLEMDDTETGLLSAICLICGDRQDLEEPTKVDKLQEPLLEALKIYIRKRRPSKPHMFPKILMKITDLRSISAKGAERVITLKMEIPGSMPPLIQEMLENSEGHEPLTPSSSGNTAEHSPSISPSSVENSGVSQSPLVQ
From the text: as §1, §2, §3

SMILES	Ki [1] [nM]	Ki [2] [nM]	Ki [3] [nM]	Ki [4] [nM]
C/C(=C/C=C(F)/C(C)=C/C(=O)O)c1cc(C(C)(C)C)cc(C(C)(C)C)c1OCC(F)F [Example 1, 7-[3,5-di-tert-butyl-2-(2,2-difluoroethoxy)-phenyl]4-fluoro-3-methyl-octa-2,4,6-trienoic acid]	12	4.8	1150	6630
C/C(=C/C(F)=C/C(C)=C/C(=O)O)c1cc(C(C)(C)C)cc(C(C)(C)C)c1OCC(F)F [Example 2, 7-[3,5-Di-tert-butyl-2-(2,2-difluoroethoxy)-phenyl]-5-fluoro-3-methyl-octa-2,4,6-trienoic acid]	15	8.2	> 10000	2750
CCCCOc1c(\C(C)=C/C=C/C(=C/C(=O)O)C(F)(F)F)cc(C(C)C)cc1C(C)C [Example 3, (2Z,4E,6Z)-7-(2-Butoxy-3,5-diisopropylphenyl)-3-trifluoromethyl-octa-2,4,6-trienoic acid]	203	1300	> 10000	> 10000
CCCCOc1c(\C(C)=C/C=C/C(=C\C(=O)O)C(F)(F)F)cc(C(C)C)cc1C(C)C [Example 4, (2E,4E,6Z)-7-(2-Butoxy-3,5-diisopropylphenyl)-3-trifluoromethyl-octa-2,4,6-trienoic acid]	1080	9110	> 10000	> 10000
CCOc1c(\C(=C/C=C/C(C)=C/C(=O)O)C(F)(F)F)cc(C(C)(C)C)cc1C(C)(C)C [Example 5, (2E,4E,6E)-3-methyl-7-(2-ethoxy-3,5-di-tert-butylphenyl)-8,8,8-trifluoroocta-2,4,6-trienoic acid]	52	38	> 10000	7250
